Laboratory results: PubChem BioAssay (NCI)
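Following 48 hours of exposure in 96-well plates, responses at five concentrations were used to interpolate endpoints linearly. TGI marks complete inhibition of growth.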

Key:
Test in all cases: NCI-60 cell line screen, 48 h
[1] = test system: A498 renal
[2] = test system: ACHN renal
[3] = test system: CCRF-CEM leukemia
[4] = test system: COLO 205 colon
[5] = test system: DMS 114 small cell lung
[6] = test system: DMS 273 small cell lung
[7] = test system: HCT-15 colon
[8] = test system: HL-60(TB) leukemia
[9] = test system: HOP-18 NSCLC
[10] = test system: HOP-92 NSCLC
[11] = test system: IGROV1 ovarian
[12] = test system: K-562 leukemia
[13] = test system: KM20L2 colon
[14] = test system: LOX IMVI melanoma
[15] = test system: LXFL 529 NSCLC
[16] = test system: M14 melanoma
[17] = test system: M19-MEL melanoma
[18] = test system: MOLT-4 leukemia
[19] = test system: NCI-H23 lung
[20] = test system: NCI-H460 lung
[21] = test system: OVCAR-4 ovarian
[22] = test system: RPMI-8226 leukemia
[23] = test system: RXF 393 renal
[24] = test system: RXF-631 renal
[25] = test system: SF-539 CNS
[26] = test system: SK-MEL-28 melanoma
[27] = test system: SK-OV-3 ovarian
[28] = test system: SN12C renal
[29] = test system: SNB-19 CNS
[30] = test system: SNB-78 CNS
[31] = test system: U251 CNS
[32] = test system: UACC-62 melanoma
[33] = test system: XF 498 CNS
[34] = test system: 786-0 renal
[35] = test system: A549 NSCLC
[36] = test system: BT-549 breast
[37] = test system: CAKI-1 renal
[38] = test system: DLD-1 colon
[39] = test system: DU-145 prostate
[40] = test system: EKVX NSCLC
[41] = test system: HCC-2998 colon
[42] = test system: HCT-116 colon
[43] = test system: HOP-62 NSCLC
[44] = test system: HS 578T breast
[45] = test system: HT29 colon
[46] = test system: KM12 colon
[47] = test system: MALME-3M melanoma
[48] = test system: MCF7 breast
[49] = test system: MDA-MB-231 breast
[50] = test system: MDA-MB-435
[51] = test system: MDA-N
[52] = test system: NCI-H226 lung
[53] = test system: NCI-H522 lung
[54] = test system: NCI/ADR-RES ovarian
[55] = test system: OVCAR-3 ovarian
[56] = test system: OVCAR-5 ovarian
[57] = test system: OVCAR-8 ovarian
[58] = test system: PC-3 prostate
[59] = test system: SF-268 CNS
[60] = test system: SF-295 CNS
[61] = test system: SK-MEL-2 melanoma
[62] = test system: SK-MEL-5 melanoma
[63] = test system: SNB-75 CNS
[64] = test system: SR leukemia
[65] = test system: SW-620 colon
[66] = test system: T-47D breast
[67] = test system: TK-10 renal
[68] = test system: UACC-257 melanoma
[69] = test system: UO-31 renal

`O=C(O)CCC1CCc2cccc(O)c2C1=O` (stereo not drawn) was tested, and the TGI [1] was greater than 100 µM, the TGI [2] was greater than 100 µM and the TGI [3] was greater than 100 µM. The TGI [4] was greater than 100 µM, the TGI [5] was greater than 100 µM and the TGI [6] was greater than 100 µM. The TGI [7] was greater than 100 µM, the TGI [8] was greater than 100 µM and the TGI [9] was greater than 100 µM. For the same molecule, the TGI [10] was greater than 100 µM, the TGI [11] was greater than 100 µM and the TGI [12] was greater than 100 µM. It also gave a TGI [13] greater than 100 µM, a TGI [14] greater than 100 µM and a TGI [15] greater than 100 µM. For the same molecule, the TGI [16] was greater than 100 µM, the TGI [17] was greater than 100 µM and the TGI [18] was greater than 100 µM. For the same molecule, the TGI [19] was greater than 100 µM, the TGI [20] was greater than 100 µM and the TGI [21] was greater than 100 µM. For the same molecule, the TGI [22] was greater than 100 µM, the TGI [23] was greater than 100 µM and the TGI [24] was greater than 100 µM. It also gave a TGI [25] greater than 100 µM, a TGI [26] greater than 100 µM and a TGI [27] greater than 100 µM. It also gave a TGI [28] greater than 100 µM, a TGI [29] greater than 100 µM and a TGI [30] greater than 100 µM. It also gave a TGI [31] greater than 100 µM, a TGI [32] greater than 100 µM and a TGI [33] greater than 100 µM.
Work on `Nc1ncnc2c1ncn2C1C=C(CO)C(O)C1O` (stereo not drawn) yielded a TGI [34] greater than 100 µM, a TGI [1] of 43.5 µM and a TGI [35] greater than 100 µM. The TGI [2] was 66.9 µM, the TGI [36] was greater than 100 µM and the TGI [37] was greater than 93.6 µM. It also gave a TGI [3] of 14 µM, a TGI [4] of 19.5 µM and a TGI [38] greater than 100 µM. The TGI [5] was 69.2 µM, the TGI [6] was 28.3 µM and the TGI [39] was 35.8 µM. The TGI [40] was greater than 100 µM, the TGI [41] was greater than 77.3 µM and the TGI [42] was 12.6 µM. It also gave a TGI [7] greater than 53.7 µM, a TGI [8] of 2.73 µM and a TGI [9] greater than 100 µM. It also gave a TGI [43] greater than 100 µM, a TGI [10] greater than 76.1 µM and a TGI [44] greater than 100 µM. The TGI [45] was greater than 100 µM, the TGI [11] was greater than 54.3 µM and the TGI [12] was 39.6 µM. The TGI [46] was greater than 100 µM, the TGI [13] was greater than 100 µM and the TGI [14] was 45.4 µM. The TGI [15] was greater than 100 µM, the TGI [16] was greater than 100 µM and the TGI [17] was greater than 100 µM. The TGI [47] was greater than 100 µM, the TGI [48] was greater than 100 µM and the TGI [49] was 52.5 µM. For the same molecule, the TGI [50] was greater than 100 µM, the TGI [51] was greater than 100 µM and the TGI [18] was 30.9 µM. It also gave a TGI [52] greater than 100 µM, a TGI [19] of 35.4 µM and a TGI [20] of 34.8 µM. The TGI [53] was 35.6 µM, the TGI [54] was 74.8 µM and the TGI [55] was greater than 85.2 µM. The TGI [21] was greater than 56.8 µM, the TGI [56] was greater than 100 µM and the TGI [57] was greater than 100 µM. It also gave a TGI [58] of 60.5 µM, a TGI [22] greater than 37 µM and a TGI [23] of 42.8 µM. The TGI [24] was 30 µM, the TGI [59] was greater than 100 µM and the TGI [60] was greater than 100 µM. For the same molecule, the TGI [25] was greater than 91.1 µM, the TGI [61] was greater than 80.4 µM and the TGI [26] was greater than 100 µM. For the same molecule, the TGI [62] was greater than 100 µM, the TGI [27] was 44.2 µM and the TGI [28] was greater than 100 µM. It also gave a TGI [29] greater than 100 µM, a TGI [63] of 48.9 µM and a TGI [30] greater than 100 µM. It also gave a TGI [64] of 3.24 µM, a TGI [65] greater than 86.8 µM and a TGI [66] of 10.2 µM. It also gave a TGI [67] greater than 84.9 µM, a TGI [31] greater than 100 µM and a TGI [68] greater than 100 µM. The TGI [32] was greater than 57.5 µM, the TGI [69] was 19.9 µM and the TGI [33] was greater than 100 µM.
`CCC(=O)OC[n+]1ccc2c(C)c3[nH]c4ccccc4c3c(C)c2c1` was tested, and the TGI [2] was 1.76 µM, the TGI [3] was 2.68 µM and the TGI [4] was 1.55 µM. It also gave a TGI [5] of 1.95 µM, a TGI [8] of 6.18 µM and a TGI [9] of 0.701 µM. For the same molecule, the TGI [10] was 2.34 µM, the TGI [45] was 2.36 µM and the TGI [13] was 2.3 µM. It also gave a TGI [15] of 1.78 µM, a TGI [17] of 2 µM and a TGI [18] of 0.725 µM. The TGI [55] was 2.68 µM, the TGI [56] was 1.91 µM and the TGI [22] was 2.2 µM. For the same molecule, the TGI [24] was 1.91 µM, the TGI [60] was 1.88 µM and the TGI [62] was 2.51 µM. It also gave a TGI [63] of 2.55 µM, a TGI [64] of 0.553 µM and a TGI [67] of 3.18 µM.
`CC(=O)Oc1cc2c(cc1OC(C)=O)C1(C)CCC2(C)c2cc(OC(C)=O)c(OC(C)=O)cc21` was tested, and the TGI [34] was greater than 100 µM, the TGI [35] was greater than 100 µM and the TGI [2] was greater than 100 µM. The TGI [37] was 90.5 µM, the TGI [3] was 11.4 µM and the TGI [4] was greater than 100 µM. It also gave a TGI [38] greater than 100 µM, a TGI [6] greater than 100 µM and a TGI [40] greater than 100 µM. For the same molecule, the TGI [41] was 71.9 µM, the TGI [7] was 85.3 µM and the TGI [8] was 19.9 µM. For the same molecule, the TGI [43] was 58.2 µM, the TGI [10] was 38.2 µM and the TGI [45] was greater than 100 µM. The TGI [11] was 72.3 µM, the TGI [12] was 81.8 µM and the TGI [46] was 28.8 µM. It also gave a TGI [13] of 79.5 µM, a TGI [14] greater than 100 µM and a TGI [15] of 19.6 µM. The TGI [16] was 90.5 µM, the TGI [17] was 75.2 µM and the TGI [47] was greater than 100 µM. For the same molecule, the TGI [18] was 96.1 µM, the TGI [19] was greater than 100 µM and the TGI [20] was 50 µM. For the same molecule, the TGI [55] was 29.7 µM, the TGI [21] was 32.1 µM and the TGI [56] was 80.9 µM. The TGI [57] was greater than 100 µM, the TGI [22] was 50.3 µM and the TGI [23] was greater than 100 µM. It also gave a TGI [24] greater than 100 µM, a TGI [59] greater than 100 µM and a TGI [60] of 58.8 µM. It also gave a TGI [61] of 66.4 µM, a TGI [26] greater than 100 µM and a TGI [62] of 54.7 µM. The TGI [27] was 72.5 µM, the TGI [28] was greater than 100 µM and the TGI [29] was 22.4 µM. For the same molecule, the TGI [63] was 91.7 µM, the TGI [30] was greater than 100 µM and the TGI [65] was 63.4 µM. The TGI [67] was 76.6 µM, the TGI [68] was 40.4 µM and the TGI [32] was 29.5 µM. For the same molecule, the TGI [69] was 89.1 µM and the TGI [33] was 29.1 µM.
